In patent US20200131669A1, “CYCLIC PEPTIDE COMPOUND HAVING HIGH MEMBRANE PERMEABILITY, AND LIBRARY CONTAINING SAME” (Chugai Seiyaku Kabushiki Kaisha, priority 2017, published 2020):
Starred links: 1 amine or outer side, 2 acyl side, 3 side chain; linkers in the order of their positions; H or OH if unused. Positions of bridges follow the written chain, without caps; N, C: chain ends. Non-standard residues stand in square brackets, D forms with d. Residues, ends and D or L forms follow the SMILES beside them. *: point of attachment. NMeAla(4-thiazolyl) = CN[C@@H](Cc1cscn1)C(=O)O; Ala(4-thiazolyl) = N[C@@H](Cc1cscn1)C(=O)O; NMeF = CN[C@@H](Cc1ccccc1)C(=O)O; NMeGABA = CN(CCCC(=O)[*:2])[*:1]; dNMeF = CN[C@H](Cc1ccccc1)C(=O)O; NMeβAla = CN(CCC(=O)[*:2])[*:1]; NMeL = CN[C@@H](CC(C)C)C(=O)O; NMeA = CN[C@@H](C)C(=O)O; Piperidide = C1CCN(*)CC1; Isopentyl = CC(C)CC*; Sar = CNCC(=O)O; tBu = CC(C)(C)*

Assay: Caco-2 membrane permeability, improved method as used in the following Examples (96-well, 20 to 24 h preincubation)
Assay type: in vitro ADME
Conditions: human, Caco-2, Caco-2
Summary of the method: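 Papp (cm/sec) was derived from LC/MS of basal samples collected 180 min after apical dosing in FaSSIF/HBSS pH 6.0 with 1% DMSO, against a basal HBSS pH 7.4 receiver containing 4% BSA. Three-week Caco-2 cultures were first preincubated with compound in DMEM+FaSSIF at 37 °C for 20–24 h.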

Structure (SMILES) | Papp A→B at 180 min [nm/s]
CC(C)CCOC[C@@H]1NC(=O)[C@H](CC(C)C)N(C)C(=O)CN(C)C(=O)[C@H]([C@@H](C)O)NC(=O)[C@H](CC(C)C)N(C)C(=O)[C@H](CC(C)C)NC(=O)[C@H](Cc2ccccc2)N(C)C(=O)[C@@H](C)NC(=O)C[C@@H](C(=O)N2CCCCC2)NC(=O)[C@H](CC(C)C)N(C)C(=O)[C@@H](Cc2ccccc2)N(C)C1=O [pd300] ([dA][NMeF]L[NMeL]T[Sar][NMeL]S(Isopentyl)[dNMeF][NMeL]D-Piperidide; lactam N-11) | 19
CC(C)CCOC[C@@H]1NC(=O)[C@H](Cc2ccccc2)N(C)C(=O)[C@@H](C)NC(=O)C[C@@H](C(=O)N2CCCCC2)NC(=O)[C@H](CC(C)C)N(C)C(=O)[C@H](Cc2ccccc2)N(C)C(=O)[C@H](COC(C)(C)C)NC(=O)[C@H](CC(C)C)N(C)C(=O)CN(C)C(=O)[C@H]([C@@H](C)O)NC(=O)[C@H](CC(C)C)N(C)C1=O [pd301] ([dA][NMeF]S(Isopentyl)[NMeL]T[Sar][NMeL]S(tBu)[NMeF][NMeL]D-Piperidide; lactam N-11) | 17
CC[C@H](C)[C@@H]1NC(=O)[C@H](CC(C)C)N(C)C(=O)CCCN(C)C(=O)C[C@@H](C(=O)N2CCCCC2)NC(=O)[C@H](CC(C)C)N(C)C(=O)[C@H](C)N(C)C(=O)[C@H]([C@@H](C)O)NC(=O)[C@H](CC(C)C)N(C)C(=O)[C@H](COCCC(C)C)NC(=O)[C@H](Cc2ccccc2)N(C)C(=O)[C@H](Cc2ccccc2)N(C)C1=O [pd302] ([NMeGABA][NMeL]I[NMeF][NMeF]S(Isopentyl)[NMeL]T[NMeA][NMeL]D-Piperidide; lactam N-11) | 14

Same assay, conditions: human, Caco-2, Caco-2 (cm/sec)

Structure (SMILES) | Papp A→B at 180 min [nm/s]
CC(C)C[C@H]1C(=O)N(C)[C@@H](Cc2ccccc2)C(=O)N(C)[C@@H](Cc2ccccc2)C(=O)N[C@@H]([C@@H](C)O)C(=O)N(C)[C@@H](C)C(=O)N(C)[C@@H](Cc2ccccc2)C(=O)N[C@H](C(=O)N2CCCCC2)CC(=O)N(C)[C@@H](C)C(=O)N(C)[C@@H](Cc2ccccc2)C(=O)N(C)[C@@H](CC(C)C)C(=O)N[C@@H](C(C)C)C(=O)N1C [pd233] ([NMeA][NMeF][NMeL]V[NMeL][NMeF][NMeF]T[NMeA][NMeF]D-Piperidide; lactam N-11) | 1.7
CC(C)C[C@@H]1NC(=O)[C@H](CC(C)C)N(C)C(=O)[C@@H](C)NC(=O)C[C@@H](C(=O)N2CCCCC2)NC(=O)[C@H](Cc2ccccc2)N(C)C(=O)[C@H](Cc2ccccc2)N(C)C(=O)[C@H](C)N(C)C(=O)[C@H]([C@@H](C)O)NC(=O)[C@H](Cc2ccccc2)N(C)C(=O)[C@H](COC(C)(C)C)NC(=O)[C@H](Cc2ccccc2)N(C)C1=O [pd234] ([dA][NMeL]L[NMeF]S(tBu)[NMeF]T[NMeA][NMeF][NMeF]D-Piperidide; lactam N-11) | 1.5
CC(C)C[C@@H]1NC(=O)[C@H](CC(C)C)N(C)C(=O)[C@H](CC(C)C)N(C)C(=O)CNC(=O)[C@H](Cc2ccccc2)N(C)C(=O)[C@H](Cc2cscn2)NC(=O)[C@H](CC(C)C)N(C)C(=O)[C@H](Cc2ccccc2)NC(=O)[C@H](C)NC(=O)C[C@@H](C(=O)N(C)[C@@H](Cc2ccccc2)C(=O)N[C@@H](C)C(=O)N2CCCCC2)NC1=O [pd235] (AF[NMeL][Ala(4-thiazolyl)][NMeF]G[NMeL][NMeL]LD[NMeF]A-Piperidide; lactam N-10) | 1
CC(C)C[C@H]1C(=O)N[C@@H](COC(C)(C)C)C(=O)N[C@@H]([C@@H](C)O)C(=O)N(C)[C@@H](Cc2ccccc2)C(=O)N[C@H](C(=O)N2CCCCC2)CC(=O)N[C@@H](C)C(=O)N(C)[C@@H](Cc2ccccc2)C(=O)N(C)[C@@H](C)C(=O)N(C)[C@@H](Cc2ccccc2)C(=O)N(C)[C@@H](CC(C)C)C(=O)N[C@@H](Cc2ccccc2)C(=O)N1C [pd237] (A[NMeF][NMeA][NMeF][NMeL]F[NMeL]S(tBu)T[NMeF]D-Piperidide; lactam N-11) | 0.89
CC(C)C[C@@H]1NC(=O)[C@H](Cc2ccccc2)N(C)C(=O)[C@H](C)N(C)C(=O)C[C@@H](C(=O)N2CCCCC2)NC(=O)[C@H](CC(C)C)N(C)C(=O)[C@H](Cc2ccccc2)N(C)C(=O)[C@H](Cc2ccccc2)NC(=O)[C@H](Cc2cscn2)N(C)C(=O)[C@H](C)N(C)C(=O)[C@H](CC(C)C)N(C)C(=O)[C@H]([C@@H](C)O)NC1=O [pd238] ([NMeA][NMeF]LT[NMeL][NMeA][NMeAla(4-thiazolyl)]F[NMeF][NMeL]D-Piperidide; lactam N-11) | 0.88
CC[C@H](C)[C@@H]1NC(=O)[C@H](Cc2ccccc2)N(C)C(=O)[C@H](C)N(C)C(=O)[C@H](CC(C)C)N(C)C(=O)[C@H](Cc2ccccc2)N(C)C(=O)CCN(C)C(=O)C[C@@H](C(=O)N(C)[C@@H](Cc2ccccc2)C(=O)N(C)[C@@H](Cc2ccccc2)C(=O)N[C@@H](C)C(=O)N2CCCCC2)NC(=O)[C@H]([C@@H](C)O)NC(=O)[C@H](CC(C)C)N(C)C(=O)[C@H](CC(C)C)N(C)C1=O [pd239] ([NMeβAla][NMeF][NMeL][NMeA][NMeF]I[NMeL][NMeL]TD[NMeF][NMeF]A-Piperidide; lactam N-10) | 0.65
CC[C@H](C)[C@@H]1NC(=O)[C@H](Cc2ccccc2)N(C)C(=O)[C@H](C)N(C)C(=O)C[C@@H](C(=O)N(C)[C@@H](Cc2ccccc2)C(=O)N(C)[C@@H](Cc2ccccc2)C(=O)N[C@@H](C)C(=O)N2CCCCC2)NC(=O)[C@H](CC(C)C)N(C)C(=O)[C@H](Cc2ccccc2)N(C)C(=O)[C@H]([C@@H](C)O)NC(=O)[C@H](CC(C)C)N(C)C(=O)[C@H](CC(C)C)N(C)C(=O)[C@H](C)N(C)C1=O [pd240] ([NMeA][NMeF]I[NMeA][NMeL][NMeL]T[NMeF][NMeL]D[NMeF][NMeF]A-Piperidide; lactam N-10) | 0.6
CC(C)C[C@H]1C(=O)N(C)[C@@H](Cc2ccccc2)C(=O)N(C)[C@@H](CC(C)C)C(=O)N[C@H](C(=O)N(C)[C@@H](Cc2ccccc2)C(=O)N[C@@H](Cc2ccccc2)C(=O)N2CCCCC2)CC(=O)N[C@@H](C(C)C)C(=O)N[C@@H](C)C(=O)N[C@@H]([C@@H](C)O)C(=O)N(C)[C@@H](C)C(=O)N[C@@H](Cc2ccccc2)C(=O)N1C [pd241] (VAT[NMeA]F[NMeL][NMeF][NMeL]D[NMeF]F-Piperidide; lactam N-9) | 0.58
CC[C@H](C)[C@@H]1NC(=O)[C@H](Cc2ccccc2)N(C)C(=O)[C@H]([C@@H](C)O)NC(=O)[C@@H](C)NC(=O)C[C@@H](C(=O)N(C)[C@@H](Cc2ccccc2)C(=O)N(C)[C@@H](Cc2ccccc2)C(=O)N[C@@H](C)C(=O)N2CCCCC2)NC(=O)[C@H](CC(C)C)N(C)C(=O)[C@H](CC(C)C)N(C)C(=O)[C@H](Cc2ccccc2)N(C)C(=O)[C@H](CC(C)C)N(C)C(=O)[C@H](C)N(C)C1=O [pd242] ([dA]T[NMeF]I[NMeA][NMeL][NMeF][NMeL][NMeL]D[NMeF][NMeF]A-Piperidide; lactam N-10) | 0.58
CC(C)C[C@@H]1NC(=O)[C@H](Cc2ccccc2)N(C)C(=O)[C@H](COC(C)(C)C)NC(=O)[C@H](Cc2ccccc2)N(C)C(=O)[C@H](Cc2ccccc2)N(C)C(=O)[C@H](CC(C)C)N(C)C(=O)[C@@H](CC(C)C)NC(=O)C[C@@H](C(=O)N2CCCCC2)NC(=O)[C@H](Cc2ccccc2)N(C)C(=O)[C@H]([C@@H](C)O)NC(=O)[C@H](CC(C)C)N(C)C1=O [pd243] ([dL][NMeL][NMeF][NMeF]S(tBu)[NMeF]L[NMeL]T[NMeF]D-Piperidide; lactam N-11) | 0.57
CC(C)C[C@@H]1NC(=O)[C@H](Cc2ccccc2)N(C)C(=O)[C@H](CC(C)C)N(C)C(=O)[C@H](Cc2ccccc2)NC(=O)[C@@H](C)NC(=O)C[C@@H](C(=O)N2CCCCC2)NC(=O)[C@H](Cc2ccccc2)N(C)C(=O)CN(C)C(=O)[C@H](Cc2ccccc2)NC(=O)[C@H](CC(C)C)N(C)C(=O)[C@H]([C@@H](C)O)NC1=O [pd244] ([dA]F[NMeL][NMeF]LT[NMeL]F[Sar][NMeF]D-Piperidide; lactam N-11) | 0.45
CC(C)C[C@@H]1NC(=O)[C@H]([C@@H](C)O)NC(=O)[C@H](CC(C)C)N(C)C(=O)C[C@@H](C(=O)N2CCCCC2)NC(=O)[C@H](COC(C)(C)C)NC(=O)[C@H](Cc2ccccc2)NC(=O)[C@H](C)N(C)C(=O)[C@H](Cc2ccccc2)NC(=O)CN(C)C(=O)[C@H](Cc2ccccc2)N(C)C(=O)[C@H](Cc2ccccc2)N(C)C1=O [pd245] ([NMeL]TL[NMeF][NMeF][Sar]F[NMeA]FS(tBu)D-Piperidide; lactam N-11) | 0.19
CC(C)C[C@@H]1NC(=O)CN(C)C(=O)[C@H](Cc2ccccc2)N(C)C(=O)[C@@H](C)NC(=O)C[C@@H](C(=O)N2CCCCC2)NC(=O)[C@H](Cc2ccccc2)N(C)C(=O)[C@H](Cc2ccccc2)N(C)C(=O)[C@H](COC(C)(C)C)NC(=O)[C@H](CC(C)C)N(C)C(=O)[C@H](Cc2ccccc2)NC(=O)[C@H]([C@@H](C)O)NC1=O [pd246] ([dA][NMeF][Sar]LTF[NMeL]S(tBu)[NMeF][NMeF]D-Piperidide; lactam N-11) | 0.14
CC(C)C[C@H]1C(=O)NCC(=O)N[C@H](C(=O)N(C)[C@@H](Cc2ccccc2)C(=O)N(C)[C@@H](Cc2ccccc2)C(=O)N[C@@H](C)C(=O)N2CCCCC2)CC(=O)N[C@@H](C)C(=O)N[C@@H]([C@@H](C)O)C(=O)N(C)[C@@H](C)C(=O)N(C)[C@@H](Cc2ccccc2)C(=O)N[C@@H](C(C)C)C(=O)N(C)[C@@H](Cc2ccccc2)C(=O)N1C [pd247] (AT[NMeA][NMeF]V[NMeF][NMeL]GD[NMeF][NMeF]A-Piperidide; lactam N-9) | 0.87

Same assay, conditions: human, Caco-2; Papp; Table 24, sequences where ARC = 4; read-out: Caco-2

Structure (SMILES) | Papp A→B at 180 min [nm/s]
CC(C)C[C@@H]1NC(=O)[C@H](C)N(C)C(=O)C[C@@H](C(=O)N2CCCCC2)NC(=O)[C@H](CC(C)C)N(C)C(=O)CN(C)C(=O)[C@H]([C@@H](C)O)NC(=O)[C@H](Cc2cscn2)N(C)C(=O)[C@H](Cc2ccccc2)N(C)C(=O)[C@H](Cc2ccccc2)NC(=O)[C@H](Cc2ccccc2)NC(=O)[C@H](CC(C)C)N(C)C1=O [pd236] ([NMeA]L[NMeL]FF[NMeF][NMeAla(4-thiazolyl)]T[Sar][NMeL]D-Piperidide; lactam N-11) | 0.96
